Like-named read-outs stand apart in the source and are kept apart here.
Molecular target: T1, rNav1.2 sodium channels (Rattus norvegicus, UniProt P04775)
T1 construct: host or cells: HEK-293
Test: QPatch automated patch clamp, inhibition of sodium currents evoked by 5 Hz trains at three extracellular pH values
Format: cell-based
Conditions: for class of pH-dependence pattern (cluster analysis): Ward's method on 18 variables of affinity, reversibility, onset; for τoffset / τonset: concentration (lidocaine 300 μM, memantine 30 μM)
Protocol: HEK-293 cells stably expressing rNav1.2 sodium channels were obtained from NeuroSearch (Ballerup, Denmark). The cells were grown in Dulbecco's modified Eagle medium supplemented with 10% FBS. Prior to use, the cells were trypsinized and subsequently kept in suspension in the QPatch cell storage facility in CHO-S- SFM-II medium.
Composition of the extracellular solution was: (in mM): 140 NaCl, 3 KCl, 1 CaCl2 1 MgCl2, 0.1 CdCl2, 20 TEA-Cl, 5 HEPES, adjusted to pH 7.3, Osmolality: 320 mOsm. […] Drugs were synthesized in Gedeon Richter Plc. […] The full list of drugs, with their three-letter codes, concentration, as well as their main therapeutic indication and main mechanism of action are shown in Table 1. […] The choice of concentrations used in this study may seem unusually high.
Data were sampled at a frequency of 25 kHz and filtered at 5 kHz. Junction potential was calculated to be −11 mV and was corrected for. […] Cells having membrane resistance < 500 MOhm, series resistance > 9 MOhm, or capacitance > 22 pF were excluded from analysis. The experimental protocol was also identical to the one used in our previous study: sodium channels were activated by 5 Hz trains of 5 depolarizations (−90 to −10 mV) repeated in every 20 s. In this study, however, the same control–drug-application–washout sequence was repeated four times: at neutral, acidic, alkalic, and again neutral pH. The peak amplitudes of sodium currents throughout the whole experiment are shown plotted against time in Figure 1 and Supplementary Figure 1.
Initial analysis, including subtraction of leak and capacitive artifacts, as well as peak detection were done in the QPatch software. […] All experiments were normalized to the amplitude of the current evoked by the first depolarization of the last train under control conditions. […] For all four drug applications in an experiment, apparent affinity, onset and offset time constants as well as reversibility values were calculated. […] (This method is equivalent to applying the Lineweaver-Burk plot method using a single concentration.) Reversibility values were calculated from control (c), inhibited (i), and wash-out (w) amplitudes as follows: Reversibility = (w-i)/(c-i). Reversibility values should not be regarded as experimental platform-independent properties of compounds. […] However, reversibility values are a valuable source of information regarding physicochemical differences between individual drugs, or between effects of the same drug under different extracellular pH conditions. Onset and offset time constants were determined by single exponential fitting to individual experiments. For neutral pH numerical data were given as the average of the data from the first and the last drug applications. Thin black lines on Figure 1 and Supplemental Figure 1 show the average of five fitted exponentials, (not the exponential fitted to the averaged normalized amplitudes). The numerical values of apparent affinity, onset and offset time constants and reversibility are shown in Table 2, and their relative position is illustrated in Figure 2. Affinity and time constant values were logarithmically transformed for statistics, therefore we show their geometric mean. For recovery data no transformation was done, and we show arithmetic mean values. Significance values were calculated using paired, two-tailed Student's t-test based on five pairs of apparent affinity (log transform), time constant (log transform), or reversibility values obtained from five individual experiments. Because of the large number of comparisons in this study, we accepted p < 0.01 as significant. Cluster analysis was done using Ward's minimum variance method, with Euclidean distance measure. Data were normalized by subtracting the mean (after logarithmic transformation in the case of apparent affinity and time constants), and dividing by the standard deviation.

[1] = pH 6.0, single concentration (lidocaine 300 μM, memantine 30 μM), geometric mean of 5, read-out: apparent affinity
[2] = pH 7.3, single concentration (lidocaine 300 μM, memantine 30 μM), geometric mean of 5, read-out: apparent affinity
[3] = pH 8.6, single concentration (lidocaine 300 μM, memantine 30 μM), geometric mean of 5, read-out: apparent affinity

T1 sequence (P04775 whole entry): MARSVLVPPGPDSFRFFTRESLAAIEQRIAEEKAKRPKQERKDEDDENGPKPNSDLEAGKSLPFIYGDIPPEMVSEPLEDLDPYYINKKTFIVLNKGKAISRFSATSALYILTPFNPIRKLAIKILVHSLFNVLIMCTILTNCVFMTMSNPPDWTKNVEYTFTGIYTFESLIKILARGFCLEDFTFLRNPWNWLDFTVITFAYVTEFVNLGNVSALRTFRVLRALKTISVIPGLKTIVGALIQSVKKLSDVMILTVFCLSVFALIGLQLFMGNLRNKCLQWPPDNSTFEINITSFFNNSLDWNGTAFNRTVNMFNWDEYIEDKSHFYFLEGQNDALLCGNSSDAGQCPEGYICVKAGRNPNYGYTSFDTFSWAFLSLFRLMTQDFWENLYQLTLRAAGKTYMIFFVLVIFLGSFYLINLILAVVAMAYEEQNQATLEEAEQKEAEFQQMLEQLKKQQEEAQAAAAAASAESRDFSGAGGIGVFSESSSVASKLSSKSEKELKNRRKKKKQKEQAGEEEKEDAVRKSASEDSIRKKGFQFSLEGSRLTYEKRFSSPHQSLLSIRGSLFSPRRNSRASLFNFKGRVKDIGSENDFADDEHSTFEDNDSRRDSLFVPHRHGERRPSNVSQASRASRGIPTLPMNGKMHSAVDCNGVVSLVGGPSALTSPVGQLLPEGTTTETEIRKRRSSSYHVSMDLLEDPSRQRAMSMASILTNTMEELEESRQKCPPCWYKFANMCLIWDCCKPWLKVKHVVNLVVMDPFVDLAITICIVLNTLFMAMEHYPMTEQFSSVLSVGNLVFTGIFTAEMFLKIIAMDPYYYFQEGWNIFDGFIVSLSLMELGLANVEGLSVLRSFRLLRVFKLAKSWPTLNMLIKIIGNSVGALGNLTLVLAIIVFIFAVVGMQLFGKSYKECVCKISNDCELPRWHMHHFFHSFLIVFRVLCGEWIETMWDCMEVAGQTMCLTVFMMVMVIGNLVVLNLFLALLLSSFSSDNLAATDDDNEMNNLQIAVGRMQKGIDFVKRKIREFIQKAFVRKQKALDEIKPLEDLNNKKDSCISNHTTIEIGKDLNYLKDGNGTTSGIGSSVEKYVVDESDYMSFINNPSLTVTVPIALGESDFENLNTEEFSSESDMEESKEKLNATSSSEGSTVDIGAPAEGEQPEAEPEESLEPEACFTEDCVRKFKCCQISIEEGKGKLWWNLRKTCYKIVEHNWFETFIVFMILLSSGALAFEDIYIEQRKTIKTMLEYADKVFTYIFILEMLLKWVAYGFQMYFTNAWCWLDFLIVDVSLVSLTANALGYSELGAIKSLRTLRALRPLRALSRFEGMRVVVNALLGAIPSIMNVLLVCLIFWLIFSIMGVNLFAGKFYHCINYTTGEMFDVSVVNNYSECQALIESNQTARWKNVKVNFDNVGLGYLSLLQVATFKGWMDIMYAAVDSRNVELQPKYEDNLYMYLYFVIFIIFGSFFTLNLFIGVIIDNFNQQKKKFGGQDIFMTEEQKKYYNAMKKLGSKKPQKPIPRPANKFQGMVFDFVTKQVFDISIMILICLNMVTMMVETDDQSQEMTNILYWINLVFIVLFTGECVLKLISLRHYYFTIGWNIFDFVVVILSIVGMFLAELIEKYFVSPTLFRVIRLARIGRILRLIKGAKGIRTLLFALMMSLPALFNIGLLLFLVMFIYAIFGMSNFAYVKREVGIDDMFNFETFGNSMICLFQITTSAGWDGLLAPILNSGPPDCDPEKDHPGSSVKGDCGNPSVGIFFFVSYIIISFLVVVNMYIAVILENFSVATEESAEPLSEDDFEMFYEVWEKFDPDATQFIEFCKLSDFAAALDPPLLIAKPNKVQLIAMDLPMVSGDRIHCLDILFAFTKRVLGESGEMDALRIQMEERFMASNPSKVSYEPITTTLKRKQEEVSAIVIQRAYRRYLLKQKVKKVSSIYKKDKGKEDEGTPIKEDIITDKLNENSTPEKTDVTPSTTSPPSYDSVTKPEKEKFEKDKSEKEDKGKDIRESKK

With `Cc1cccc(C)c1OCC(C)N` (centres unmarked) [mexiletine] as the compound, how does the “class of pH-dependence pattern (cluster analysis)” value read?
Its value is “Class F”.

And the “effect of alkalic pH on onset/offset kinetics” value (in words)?
Its value is “acceleration of onset”.

What about the “Ratio Reversibility” value (pH 6.0/7.3, cc 300 mM) of the same compound?
Its value is 0.987.

What about the “Ratio Tau Offset” value (pH 6.0/7.3, cc 300 mM) of the same compound?
Its value is 1.071.

What about the “Ratio Tau Onset” value (pH 6.0/7.3, cc 300 mM) of the same compound?
Its value is 1.162.

What about the “log Ratio App Aff” value (pH 6.0/7.3, cc 300 mM) of the same compound?
The value was 0.268.

What about the “Ratio Reversibility” value (pH 6.0/8.6, cc 300 mM) of the same compound?
Its value is 1.300.

What about the “Ratio Tau Offset” value (pH 6.0/8.6, cc 300 mM) of the same compound?
Its value is 0.938.

And the “Ratio Tau Onset” value (pH 6.0/8.6, cc 300 mM)?
Its value is 1.411.

What about the “log Ratio App Aff” value (pH 6.0/8.6, cc 300 mM) of the same compound?
The value was 0.786.

What about the τoffset (pH 6.0) of the same compound?
The τoffset was 21.00 s.

What about the τonset (pH 6.0) of the same compound?
Its τonset is 15.80 s.

And the Kd [1]?
Its Kd is 350 µM.

What about the “Ratio Reversibility” value (pH 7.3/8.6, cc 300 mM) of the same compound?
The value was 1.317.

And the “Ratio Tau Offset” value (pH 7.3/8.6, cc 300 mM)?
The value was 0.875.

And the “Ratio Tau Onset” value (pH 7.3/8.6, cc 300 mM)?
Its value is 1.214.

And the “log Ratio App Aff” value (pH 7.3/8.6, cc 300 mM)?
Its value is 0.518.

What about the τoffset (pH 7.3) of the same compound?
Its τoffset is 19.60 s.

And the τonset (pH 7.3)?
The τonset was 13.60 s.

And the Kd [2]?
Its Kd is 189 µM.

And the τoffset (pH 8.6)?
Its τoffset is 22.40 s.

And the τonset (pH 8.6)?
Its τonset is 11.20 s.

What about the Kd [3] of the same compound?
The Kd was 57.3 µM.

What about the “KD app, effect of acidic medium” value (pH = 6.0 vs neutral, increased KD app = decreased apparent affinity) of the same compound?
The value was “MEM,MEX,TOL↑”.

And the Reversibility (pH=6.0, cc 300 mM)?
Its Reversibility is 0.78.

And the Kd (pH=6.0, cc 300 mM, read-out: Apparent Affinity)?
The Kd was 350 µM.

And the Reversibility (pH=7.3, cc 300 mM)?
The Reversibility was 0.79.

And the Kd (pH=7.3, cc 300 mM, read-out: Apparent Affinity)?
Its Kd is 189 µM.

What about the Reversibility (pH=8.6, cc 300 mM) of the same compound?
The Reversibility was 0.60.

What about the Kd (pH=8.6, cc 300 mM, read-out: Apparent Affinity) of the same compound?
Its Kd is 57.3 µM.

Which “class of pH-dependence pattern (cluster analysis)” value does the source give for `CN1CCN2c3ncccc3Cc3ccccc3C2C1` (centres unmarked) [mirtazapine] here?
Its value is “Class D”.

And the “Ratio Reversibility” value (pH 6.0/7.3, cc 100 mM)?
The value was 0.272.

And the “Ratio Tau Offset” value (pH 6.0/7.3, cc 100 mM)?
The value was 1.108.

What about the “Ratio Tau Onset” value (pH 6.0/7.3, cc 100 mM) of the same compound?
The value was 1.386.

And the “log Ratio App Aff” value (pH 6.0/7.3, cc 100 mM)?
Its value is 0.353.

And the “Ratio Reversibility” value (pH 6.0/8.6, cc 100 mM)?
Its value is 0.495.

What about the “Ratio Tau Offset” value (pH 6.0/8.6, cc 100 mM) of the same compound?
Its value is 0.960.

And the “Ratio Tau Onset” value (pH 6.0/8.6, cc 100 mM)?
The value was 1.173.

And the “log Ratio App Aff” value (pH 6.0/8.6, cc 100 mM)?
Its value is 0.925.

And the τoffset (pH 6.0)?
Its τoffset is 14.40 s.

And the τonset (pH 6.0)?
Its τonset is 12.20 s.

What about the Kd [1] of the same compound?
Its Kd is 317 µM.

What about the “Ratio Reversibility” value (pH 7.3/8.6, cc 100 mM) of the same compound?
The value was 1.821.

What about the “Ratio Tau Offset” value (pH 7.3/8.6, cc 100 mM) of the same compound?
Its value is 0.867.

And the “Ratio Tau Onset” value (pH 7.3/8.6, cc 100 mM)?
The value was 0.846.

And the “log Ratio App Aff” value (pH 7.3/8.6, cc 100 mM)?
The value was 0.572.

What about the τoffset (pH 7.3) of the same compound?
The τoffset was 13.00 s.

And the τonset (pH 7.3)?
Its τonset is 8.80 s.

What about the Kd [2] of the same compound?
The Kd was 141 µM.

What about the τoffset (pH 8.6) of the same compound?
Its τoffset is 15.00 s.

And the τonset (pH 8.6)?
The τonset was 10.40 s.

And the Kd [3]?
Its Kd is 37.7 µM.

And the “effect of acidic pH on recovery” value (pH = 6.0 vs 7.3, in words)?
The value was “decreased recovery”.

What about the Reversibility (pH=6.0, cc 100 mM) of the same compound?
Its Reversibility is 0.26.

And the Kd (pH=6.0, cc 100 mM, read-out: Apparent Affinity)?
Its Kd is 317 µM.

And the Reversibility (pH=7.3, cc 100 mM)?
The Reversibility was 0.95.

And the Kd (pH=7.3, cc 100 mM, read-out: Apparent Affinity)?
Its Kd is 141 µM.

What about the Reversibility (pH=8.6, cc 100 mM) of the same compound?
The Reversibility was 0.52.

What about the Kd (pH=8.6, cc 100 mM, read-out: Apparent Affinity) of the same compound?
The Kd was 37.7 µM.

Which results are given for `CCc1nn(CCCN2CCN(c3cccc(Cl)c3)CC2)c(=O)n1CCOc1ccccc1` [nefazodone]?
class of pH-dependence pattern (cluster analysis): Class G; alkalization-induced recovery (neutral-to-alkalic solution exchange, in words): prominent alkalization-induced recovery; reversibility at all three pH values (pH 6.0, 7.3 and 8.6): below 0.6; Ratio Reversibility (pH 6.0/7.3, cc 30 mM): 0.854; Ratio Tau Offset (pH 6.0/7.3, cc 30 mM): 0.978; Ratio Tau Onset (pH 6.0/7.3, cc 30 mM): 0.875; log Ratio App Aff (pH 6.0/7.3, cc 30 mM): 0.341; Ratio Reversibility (pH 6.0/8.6, cc 30 mM): 1.152; Ratio Tau Offset (pH 6.0/8.6, cc 30 mM): 0.825; Ratio Tau Onset (pH 6.0/8.6, cc 30 mM): 0.863; log Ratio App Aff (pH 6.0/8.6, cc 30 mM): 0.122; τoffset (pH 6.0): 13.20 s; τonset (pH 6.0): 12.60 s; Kd [1]: 38.2 µM; Ratio Reversibility (pH 7.3/8.6, cc 30 mM): 1.349; Ratio Tau Offset (pH 7.3/8.6, cc 30 mM): 0.844; Ratio Tau Onset (pH 7.3/8.6, cc 30 mM): 0.986; log Ratio App Aff (pH 7.3/8.6, cc 30 mM): -0.220; τoffset (pH 7.3): 13.50 s; τonset (pH 7.3): 14.40 s; Kd [2]: 17.4 µM; τoffset (pH 8.6): 16.00 s; τonset (pH 8.6): 14.60 s; Kd [3]: 28.9 µM; Reversibility (pH=6.0, cc 30 mM): 0.51; Kd (pH=6.0, cc 30 mM, read-out: Apparent Affinity): 38.2 µM; Reversibility (pH=7.3, cc 30 mM): 0.59; Kd (pH=7.3, cc 30 mM, read-out: Apparent Affinity): 17.4 µM; Reversibility (pH=8.6, cc 30 mM): 0.44; Kd (pH=8.6, cc 30 mM, read-out: Apparent Affinity): 28.9 µM
